Assay results as given in paper PMC5007513, “Discovery of new diketopiperazines inhibiting Burkholderia cenocepacia quorum sensing in vitro and in vivo” (Scientific Reports, 2016).

What was measured:
C. elegans = assay: Survival of uninfected C. elegans treated with the compounds; details: no infection
HeLa cells = assay: Mammalian cell viability assay; type: cell-based, Human; details: for cell death in microphotographs: 72 h
Description: Human cervical carcinoma-derived HeLa cells were maintained in routine culture with weekly splitting. […] All reagents were purchased from Life Technologies. Twenty-four hours before drug treatment, cells were trypsinized, resuspended in medium and counted on a Z2 Beckman Coulter counter (Beckman Coulter) in order to obtain a confluent 12-wells plate. […] Cell viability data were derived from two independent experiments and were normalized to NT sample at 24 h. NT samples were subjected only to DMSO solvent. Microphotographs were obtained through an inverted microscope (Nikon) equipped with phase contrast and dark field illumination.

[1] = system: Burkholderia mallei AHL-synthase; details: cited from earlier work

Question: Which C. elegans survival (C. elegans; 1 μM, 24 h) does the source give for O=C1CNC(=O)C(c2cc(OCc3ccccc3)ccc2OCc2ccccc2)N1 (stereo not shown) [6a] here?
Answer: Its C. elegans survival is 98 ± 6%.

Question: What about the C. elegans survival (C. elegans; 1 μM, 48 h) of the same compound?
Answer: The C. elegans survival was 91 ± 12%.

Question: What about the C. elegans survival (C. elegans; 5 μM, 24 h) of the same compound?
Answer: Its C. elegans survival is 99 ± 2%.

Question: And the C. elegans survival (C. elegans; 5 μM, 48 h)?
Answer: The C. elegans survival was 98 ± 4%.

Question: What about the C. elegans survival (C. elegans; 10 μM, 24 h) of the same compound?
Answer: Its C. elegans survival is 91 ± 8%.

Question: And the C. elegans survival (C. elegans; 10 μM, 48 h)?
Answer: Its C. elegans survival is 86 ± 10%.

Question: What about the C. elegans survival (C. elegans; 25 μM, 24 h) of the same compound?
Answer: The C. elegans survival was 91 ± 4%.

Question: And the C. elegans survival (C. elegans; 25 μM, 48 h)?
Answer: The C. elegans survival was 91 ± 6%.

Question: And the “significant effects (p < 0.05) on cell growth” value (HeLa cells; HeLa, 10, 25, 50 and 100 μM, 24 h and 48 h)?
Answer: The value was “observed only after 48 h treatment at a concentration of 100 μM”.

Question: And the “cell death in microphotographs” value (HeLa cells; HeLa)?
Answer: Its value is “did not induce cell death”.

Question: Which C. elegans survival (C. elegans; 1 μM, 24 h) does the source give for O=C1C=CC(=O)C(C2NC(=O)C(Cc3ccccc3)NC2=O)=C1 (stereo not shown) [8b] here?
Answer: The C. elegans survival was 98 ± 5%.

Question: What about the C. elegans survival (C. elegans; 1 μM, 48 h) of the same compound?
Answer: The C. elegans survival was 97 ± 6%.

Question: And the C. elegans survival (C. elegans; 5 μM, 24 h)?
Answer: The C. elegans survival was 97 ± 7%.

Question: And the C. elegans survival (C. elegans; 5 μM, 48 h)?
Answer: Its C. elegans survival is 95 ± 7%.

Question: And the C. elegans survival (C. elegans; 10 μM, 24 h)?
Answer: The C. elegans survival was 99 ± 2%.

Question: And the C. elegans survival (C. elegans; 10 μM, 48 h)?
Answer: The C. elegans survival was 95 ± 10%.

Question: What about the C. elegans survival (C. elegans; 25 μM, 24 h) of the same compound?
Answer: Its C. elegans survival is 98 ± 5%.

Question: What about the C. elegans survival (C. elegans; 25 μM, 48 h) of the same compound?
Answer: The C. elegans survival was 96 ± 5%.

Question: And the cell viability reduction (HeLa cells; HeLa, 50 μM, 48 h)?
Answer: Its cell viability reduction is “approximately 50%”.

Question: What about the “reduction in cell viability” value (HeLa cells; HeLa, 100 μM, 24 h) of the same compound?
Answer: Its value is roughly 20%.

Question: What about the “cell death in microphotographs” value (HeLa cells; HeLa, 50 and 100 μM) of the same compound?
Answer: Its value is “confirmed cell death”.

Question: Which “activity against AHL-synthase” value [1] does the source give for CN1CCN(C(c2ccccn2)c2c(-c3ccccc3)n(O)c3ccccc23)CC1 (stereo not shown) [compound 1 from Christensen et al., reference compound] here?
Answer: The value was “very active”.
